From US20230203081A1, “LINCOSAMIDE ANTIBIOTICS AND USES THEREOF” (President and Fellows of Harvard College, priority 2020, published 2023)

Experiments:
Format in all cases: cell-based
E. coli armA = experiment: microbe, parasite or virus in culture; settings: Escherichia coli, E. coli HAV#056; Clinical, armA
Outline: (§1)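 Inoculum for broth microdilution was 5×10^5 CFU/mL final, prepared from overnight 35° C blood-agar subcultures (separate handling for streptococcal and anaerobic strains); MICs read by CLSI broth microdilution or agar dilution.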

[1] = tested on: broad panel of different clinical isolates; experiment: microbe, parasite or virus in culture
Outline: as §1

E. coli ΔTolC = experiment: microbe, parasite or virus in culture; settings: Escherichia coli, E. coli HAV#038; ΔTolC
Outline: as §1

S. aureus BAA 977 iErmA = experiment: microbe, parasite or virus in culture; settings: Staphylococcus aureus, BAA-977 / MRSA
Outline: as §1

S. aureus MP-549 msrA = experiment: microbe, parasite or virus in culture; settings: Staphylococcus aureus, MP549MSRA; S. aureus HAV#032, MP-549; MSR(A); read-out: MIC
Outline: as §1

S. aureus ATCC 700699 = experiment: MIC (broth microdilution or agar dilution, CLSI); settings: Staphylococcus aureus; S. aureus HAV#202, ATCC 700699 (VISA); read-out: MIC
Outline: as §1

E. coli ATCC 25922 = experiment: MIC (broth microdilution or agar dilution, CLSI); settings: Escherichia coli, ATCC25922; E. coli HAV#006, ATCC 25922; read-out: MIC
Outline: as §1

E. coli LptD = experiment: MIC (broth microdilution or agar dilution, CLSI); settings: Escherichia coli, E. coli HAV#040; LptD; read-out: MIC
Outline: as §1

K. pneumoniae ATCC 10031 = experiment: MIC (broth microdilution or agar dilution, CLSI); settings: Klebsiella pneumoniae, ATCC10031
Outline: as §1

S. pneumoniae ATCC 6303 = experiment: MIC (broth microdilution or agar dilution, CLSI); settings: Streptococcus pneumoniae, ATCC6303; S. pneumoniae HAV#351, ATCC 6303; read-out: MIC
Outline: as §1

[2] = tested on: S. pneumoniae MMX 3028 cErmB; experiment: MIC (broth microdilution or agar dilution, CLSI); settings: Streptococcus pneumoniae, MMX3028CERMB; S. pneumoniae HAV#033; MMX 3028, cErmB; read-out: MIC
Outline: as §1

S. pneumoniae ATCC 49619 = experiment: MIC (broth microdilution or agar dilution, CLSI); settings: Streptococcus pneumoniae, ATCC49619, S. pneumoniae HAV#003, ATCC 49619; read-out: MIC
Outline: as §1

[3] = tested on: E. faecalis MMX 847; cErmB; experiment: MIC (broth microdilution or agar dilution, CLSI); settings: Enterococcus faecalis; E. faecalis HAV#036, MMX 847; mac-resistant, cErmB; read-out: MIC
Outline: as §1

S. pyogenes ATCC 19615 = experiment: MIC (broth microdilution or agar dilution, CLSI); settings: Streptococcus pyogenes, ATCC19615, S. pyogenes HAV#004, ATCC 19615; read-out: MIC
Outline: as §1

S. aureus MMX 3035 cErmA = experiment: MIC (broth microdilution or agar dilution, CLSI); settings: Staphylococcus aureus, MMX3035CERMA; S. aureus HAV#031, MMX 3035; cErmA; read-out: MIC
Outline: as §1

S. aureus ATCC 29213 = experiment: MIC (broth microdilution or agar dilution, CLSI); settings: Staphylococcus aureus, ATCC29213, S. aureus HAV#001, ATCC 29213, MP-549; read-out: MIC
Outline: as §1

[4] = tested on: S. pyogenes MMX 946; cErmB; experiment: MIC (broth microdilution or agar dilution, CLSI); settings: Streptococcus pyogenes; S. pyogenes HAV#035, MMX 946; cErmB, mac-resistant; read-out: MIC
Outline: as §1

[5] = tested on: S. aureus ATCC BAA-1707 (MRSA); experiment: MIC (broth microdilution or agar dilution, CLSI); settings: Staphylococcus aureus
Outline: as §1

[6] = tested on: S. pneumoniae MMX 3031 cMefA; experiment: MIC (broth microdilution or agar dilution, CLSI); settings: Streptococcus pneumoniae, MMX3031CMEFA, S. pneumoniae HAV#034; MMX 3031, cMefA; read-out: MIC
Outline: as §1

Measured: MIC

C[C@H]1COc2c(N3CCN(C)CC3)c(F)cc3c(=O)c(C(=O)O)cn1c23 [Levofloxacin]
16 µg/mL: [1]; Acinetobacter baumannii, A. baumannii HAV#659, Clinical | [1]; Escherichia coli, E. coli HAV#516, ESBL-producing | [1]; Staphylococcus epidermidis, S. epidermidis HAV# 275 Clinical, cfr | [1]; Staphylococcus epidermidis, S. epidermidis HAV#278 Line R
2 µg/mL: [1]; Enterococcus faecalis, VRE, E. faecalis HAV#251, Clinical VRE | [1]; Enterococcus faecium, E. faecium HAV#317, Clinical | [1]; Escherichia coli, E. coli HAV#513, Clinical | [1]; Staphylococcus aureus, S. aureus HAV#213, Clinical | [1]; Staphylococcus aureus, S. aureus HAV#217, cfr
32 µg/mL: [1]; Acinetobacter baumannii, A. baumannii HAV#656, Clinical | [1]; Enterococcus faecalis, E. faecalis HAV#609, Clinical | [1]; Escherichia coli, E. coli HAV#501, Clinical | [1]; Staphylococcus aureus, S. aureus HAV#054, mecA, norA, spcl, aad1, fosB, ermA, aac6′-aph2″, blaZ | S. aureus ATCC 700699
0.5 µg/mL: [1]; Acinetobacter baumannii, A. baumannii HAV#655, Clinical | [1]; Acinetobacter baumannii, A. baumannii HAV#657, Clinical | [1]; Klebsiella pneumoniae, K. pneumoniae HAV#409, ESBL-producing | [1]; Staphylococcus aureus, S. aureus HAV#051, mecA, norA, spcl, ermA, aad1, aac6′-aph2″ | [1]; Staphylococcus aureus, S. aureus HAV#053 mecA, norA, fosB | [1]; Streptococcus pneumoniae, ATCC700673, S. pneumoniae HAV#352, ATCC 700673, MDR | [1]; Streptococcus pneumoniae, ATCCBAA334, S. pneumoniae HAV#353, ATCC-BAA-334 | S. aureus BAA 977 iErmA | S. pneumoniae ATCC 6303 | [2] | S. pyogenes ATCC 19615 | [4] | [6]
> 64 µg/mL: [3]
4 µg/mL: [1]; Enterococcus faecium, E. faecium HAV#327, Clinical | [1]; Enterococcus faecium, VRE, E. faecium HAV#320, Clinical | [1]; Escherichia coli, E. coli HAV#511, Clinical | S. aureus MMX 3035 cErmA
64 µg/mL: [1]; Acinetobacter baumannii, A. baumannii HAV#660, Clinical | [1]; Acinetobacter baumannii, A. baumannii HAV#664, Carbapenem R | [1]; Enterococcus faecalis, E. faecalis HAV#607, Clinical | [1]; Enterococcus faecalis, E. faecalis HAV#608, Clinical | [1]; Enterococcus faecalis, S. faecalis 5060, Line R & Vanco R | [1]; Escherichia coli, E. coli HAV#503, Clinical | [1]; Klebsiella pneumoniae, K. pneumoniae HAV#041, Clinical, KPC | [1]; Staphylococcus aureus, MRSA, S. aureus HAV#220, Line R
8 µg/mL: [1]; Acinetobacter baumannii, A. baumannii HAV#662, Clinical | [1]; Enterococcus faecalis, E. faecalis HAV#610, Clinical | [1]; Enterococcus faecalis, S. faecalis 5074, Line R | [1]; Staphylococcus aureus, VISA, S. aureus HAV#203, Clinical (VISA) | [1]; Staphylococcus epidermidis, S. epidermidis HAV#279, Line R | [1]; Staphylococcus haemolyticus, S. haemolyticus 5052, Line R & Methicillin R
> 128 µg/mL: [1]; Enterococcus faecium, E. faecium HAV#324, Clinical | [1]; Klebsiella pneumoniae, K. pneumoniae HAV#407, Clinical | [1]; Staphylococcus epidermidis, S. epidermidis HAV#277, Line R | [5]
≤ 0.03 µg/mL: K. pneumoniae ATCC 10031
≤ 0.06 µg/mL: E. coli armA | E. coli ΔTolC | E. coli ATCC 25922 | E. coli LptD
0.03 µg/mL: [1]; Haemophilus influenzae, ATCC9007, H. influenzae HAV#376, ATCC-9007
0.25 µg/mL: [1]; Acinetobacter baumannii, A. baumannii HAV#653, Clinical | [1]; Acinetobacter baumannii, A. baumannii HAV#658, Clinical | [1]; Acinetobacter baumannii, A. baumannii HAV#663, Clinical | [1]; Staphylococcus aureus, MRSA, S. aureus HAV#218, Line R | [1]; Staphylococcus aureus, MSSA, S. aureus HAV#219, Line R | [1]; Staphylococcus aureus, S. aureus HAV#212, Clinical | [1]; Staphylococcus aureus, S. aureus HAV#214, Clinical | [1]; Staphylococcus aureus, S. aureus HAV#215, Clinical | [1]; Streptococcus pneumoniae, ATCCBAA255, S. pneumoniae HAV#354, ATCC-BAA-255 | [1]; Streptococcus pneumoniae, S. pneumoniae HAV#356, Clinical | [1]; Streptococcus pneumoniae, S. pneumoniae HAV#358, Clinical | S. aureus ATCC 29213
0.125 µg/mL: [1]; Acinetobacter baumannii, A. baumannii HAV#651, Clinical | [1]; Acinetobacter baumannii, A. baumannii HAV#654, Clinical | [1]; Acinetobacter baumannii, A. baumannii HAV#661, Clinical | [1]; Klebsiella pneumoniae, K. pneumoniae HAV#406, Clinical
128 µg/mL: [1]; Enterococcus faecalis, VRE, E. faecalis HAV#606, Clinical | [1]; Enterococcus faecium, E. faecium HAV#328, Clinical | [1]; Enterococcus faecium, E. faecium HAV#329, Clinical | [1]; Enterococcus faecium, VRE, E. faecium HAV#319, Line R & Vanco R | [1]; Staphylococcus epidermidis, S. epidermidis HAV# 276, cfr
< 0.06 µg/mL: [1]; Escherichia coli, E. coli HAV#512, Clinical | [1]; Escherichia coli, E. coli HAV#514, Clinical
1 µg/mL: [1]; Acinetobacter baumannii, A. baumannii HAV#652 Clinical | [1]; Enterococcus faecalis, E. faecalis HAV#602, Clincal | [1]; Klebsiella pneumoniae, K. pneumoniae HAV#404, Clinical | [1]; Klebsiella pneumoniae, K. pneumoniae HAV#405, Clinical | [1]; Klebsiella pneumoniae, K. pneumoniae HAV#408, Clinical | [1]; Staphylococcus aureus, MRSA, S. aureus HAV#0107, MRSA Col(Colindale, England) | [1]; Staphylococcus aureus, S. aureus HAV#052, mecA, norA, fosB, blaZ | S. aureus MP-549 msrA | S. pneumoniae ATCC 49619
